Assay results as given in US11904051B2, “Shear stress sensitive liposomes” (Universität Basel, priority 2018, dated 2024).

Assays:
[1] = Dynamic light scattering of liposomes (Delsa Nano C); type: physicochemical; conditions: 25 ° C.
Protocol: The lipid concentration of the two formulations was determined using the phosphate test (Stalder and Zumbuehl. CHIMIA International Journal for Chemistry 2013, 67, 819-821). Size and size distribution of the liposomes were quantified by means of dynamic light scattering (DLS) using a Delsa Nano C (Beckman Coulter, USA). DLS measurements were performed at a temperature of 25° C., using two laser diodes working at a wavelength of 658 nm. The scattering angle was set to 165 degrees. Cryo-TEM images of Pad-PC-Pad liposomal suspension were taken by mounting the liposomal suspension on glow-discharged holey carbon grids, quickly frozen by a Cryoplunge CP3 system (Gatan, USA), and transferred to a JEM2200FS transmission electron microscope (JEOL, Japan) using a Gatan626 cryo-holder. Cryo-TEM micrographs were recorded at an acceleration voltage of 200 kV at a magnification of 20,000, 4-8 μm under-focus, and a dose of 10 electrons=Å^2, using a F416 CMOS detector (TVIPS, Germany).

[2] = Surface pressure/area per molecule isotherms of monolayers on Langmuir-Pockels trough; type: physicochemical
Protocol: The surface pressure/area per molecule isotherm measurements were carried out on a Langmuir-Pockels trough, equipped with a Wilhelmy paper balance (accuracy 0.2 mN/m), at the air-water interface. The isotherms were measured at different subphase temperatures between 5° C. and 25° C. (FIG. 2).
Above 10 C, a plateau of a mixed expanded/condensed phase transition was observed. The appearance of the plateau is accompanied by a shift of the initial lift-off area per molecule to higher values. The plateau represents the first-order phase transition from a liquid-expanded (LE) to a liquid-condensed (LC) phase. The plateau is not fully horizontal, especially it becomes steeper as the temperature increases. The monolayers themselves are stable over the measurable range of surface pressures up to an instrument-based cut-off at 51 mN/m. From the onset of the plateau it is possible to determine the temperature-dependent main transition pressure Πt. For 1,3-diheptadecanamidopropan-2-yl (2-(trimethylammonio) ethyl) phosphate this dependence can be described by a linear function (FIG. 3). The experimental data only deviates from this linear function in close vicinity of the minimum transition temperature T0 below which the transition into a condensed phase directly starts from the gas-analog state (re-sublimation process). […]

SMILES | mean diameter (DLS) [1] | polydispersity index (PDI) [1] | minimum transition temperature T0 of monolayer ([2]; air-water interface) [°C] | critical temperature of monolayers ([2]; extrapolation of ΔS to zero) [K]
CCCCCCCCCCCCCCCC(=O)NCC(CNC(=O)CCCCCCCCCCCCCCC)OP(=O)([O-])OCC[N+](C)(C)C [Pad-PC-Pad, 1,3-palmitoylamido-1,3-deoxy-sn-glycero-2-phosphatidylcholine] | 131.6+/−0.9 nm | 0.103+/−0.009 |  | 
CCCCCCCCCCCCCCCCC(=O)NCC(CNC(=O)CCCCCCCCCCCCCCCC)OP(=O)([O-])OCC[N+](C)(C)C [Rad-PC-Rad, 1,3-diheptadecanamidopropan-2-yl (2-(trimethylammonio)ethyl) phosphate] |  |  | 11.2 | 306.3
